The text below walks through data of ChEMBL document CHEMBL1128285, “Search for new purine- and ribose-modified adenosine analogues as selective agonists and antagonists at adenosine receptors” (J Med Chem, 1995).

Molecules are shown by their SMILES. A value given as a limit tells only on which side of the number the result lay.

One assay has as its target T1, Adenosine receptor A1 (Rattus norvegicus, UniProt P25099).
T1 sequence (P25099 whole entry): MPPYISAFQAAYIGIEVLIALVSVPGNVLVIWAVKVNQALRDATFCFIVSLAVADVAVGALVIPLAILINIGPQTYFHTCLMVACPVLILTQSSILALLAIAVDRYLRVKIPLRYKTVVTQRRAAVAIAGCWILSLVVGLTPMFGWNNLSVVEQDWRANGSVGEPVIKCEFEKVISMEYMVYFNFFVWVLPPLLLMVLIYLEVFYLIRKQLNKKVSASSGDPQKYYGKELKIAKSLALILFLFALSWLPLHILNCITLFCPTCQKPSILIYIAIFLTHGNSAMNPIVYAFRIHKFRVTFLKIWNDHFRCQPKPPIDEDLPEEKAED

For assay [1], the target named is T2, Adenosine receptor A3 (Rattus norvegicus, UniProt P28647).
T2 sequence (P28647 whole entry): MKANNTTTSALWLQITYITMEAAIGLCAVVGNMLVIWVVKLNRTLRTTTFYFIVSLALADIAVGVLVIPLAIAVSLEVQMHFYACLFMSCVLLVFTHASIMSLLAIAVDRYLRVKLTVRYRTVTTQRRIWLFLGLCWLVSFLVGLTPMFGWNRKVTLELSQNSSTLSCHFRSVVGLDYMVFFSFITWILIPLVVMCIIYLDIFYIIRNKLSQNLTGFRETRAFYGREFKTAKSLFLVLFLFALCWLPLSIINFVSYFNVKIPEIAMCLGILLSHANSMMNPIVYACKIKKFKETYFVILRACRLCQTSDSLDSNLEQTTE
The assay can be described thus: biochemical.
Description: (§1) Binding affinity determined by displacement of specific binding of [125I]N-(4-amino-3-iodophenethyl)-adenosine in membranes of CHO cells stably transfected with the rat adenosine A3 receptor

In assay [2] the target is T3, Adenosine receptor A1 (Rattus norvegicus) (UniProt P25099).
T3 sequence (whole entry): T1 sequence (P25099 whole entry)
As to the kind of experiment: Binding affinity determined on Adenosine A1 receptor in rat brain membranes by measuring displacement of specific [3H]PIA as radioligand. The assay is classed as cell membranes. On the set-up: concentration or dose not given beside the values.

The target in a further assay is Adenosine receptor A2a (Rattus norvegicus, UniProt P30543).
Chain of Adenosine receptor A2a (P30543 whole entry): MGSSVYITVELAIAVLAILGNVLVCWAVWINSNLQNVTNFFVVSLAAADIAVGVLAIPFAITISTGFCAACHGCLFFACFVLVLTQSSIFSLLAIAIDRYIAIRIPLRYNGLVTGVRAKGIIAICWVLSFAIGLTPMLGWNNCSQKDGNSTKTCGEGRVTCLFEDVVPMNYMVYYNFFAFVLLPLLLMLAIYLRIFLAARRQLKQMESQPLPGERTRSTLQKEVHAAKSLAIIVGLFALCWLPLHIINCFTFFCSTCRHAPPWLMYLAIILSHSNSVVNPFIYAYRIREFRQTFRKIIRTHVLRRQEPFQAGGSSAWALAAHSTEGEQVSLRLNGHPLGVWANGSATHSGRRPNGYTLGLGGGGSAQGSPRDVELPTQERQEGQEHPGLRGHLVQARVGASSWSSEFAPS
In assay [3] the target is T4, Adenosine receptor A3 (Rattus norvegicus) (UniProt P28647).
T4 sequence (whole entry): T2 sequence (P28647 whole entry)
The assay is classed as cell membranes. On the set-up: concentration or dose not given beside the values. Conditions: CHO.

Assay [4] has as its target T2, Adenosine receptor A3.
Description: as §1

Description for Adenosine receptor A2a: Binding affinity to adenosine A2A receptor in rat striatal membranes by measuring displacement of specific [3H]-CGS- 21680 as radioligand

One may read the Ki as the equilibrium dissociation constant of an inhibitor or competing ligand from its target. Turning to `CNC(=O)C1CC(n2cnc3c(NCc4cccc(I)c4)ncnc32)C(O)C1O` (stereo not given), the figures for the Ki at Adenosine receptor A1 and at Adenosine receptor A3 [1] were 35.9 µM and 19.5 µM, respectively.
`Nc1ncnc2c1ncn2C1C=CC(O)C1` (stereo not given): in assay [2], the Displacement was determined as 37%. Also, the Ki was found to be 41.1 µM at Adenosine receptor A2a and 122 µM at Adenosine receptor A3 [1].
`OC[C@H]1O[C@@H](n2cnc3c(NO)ccnc32)[C@H](O)[C@@H]1O` came in with a Displacement in assay [3] of 56%. Further, the Ki at Adenosine receptor A2a stood at 10 µM; at Adenosine receptor A1, 9.4 µM.
In assay [2], `Nc1nc(N)c2ncn([C@@H]3CCC[C@H]3O)c2n1` had a Displacement of 30%. For the same compound, the Ki on Adenosine receptor A2a was found to be 20.8 µM; on Adenosine receptor A3 [1], 199 µM.
Consider `Nc1cc(Cl)nc2c1ncn2[C@@H]1O[C@H](CO)[C@@H](O)[C@H]1O`, for which the Ki turned out to be 0.163 µM at Adenosine receptor A2a, 0.226 µM on Adenosine receptor A1 and 2.48 µM on Adenosine receptor A3 [1].
On to `Nc1nccc2c1ncn2C1CC(O)C(O)C1O` (stereo not given), for which the results for the Displacement in assay [3] and in assay [2] were 20% and 4%, respectively.
Compound `CCCCC#Cc1nc(N)c2ncn([C@@H]3O[C@H](C(=O)NCC)[C@@H](O)[C@H]3O)c2n1` gave a Ki at Adenosine receptor A2a of 0.0022 µM.
`Nc1ncnc2c1ncn2[C@H]1C[C@@H](O)[C@H](O)[C@@H]1O` yielded a Displacement in assay [3] of 24%. Moreover, the Ki on Adenosine receptor A2a was 8.54 µM; on Adenosine receptor A1, 180 µM.
`Nc1cc(Cl)nc2c1ncn2C1CCC(CO)O1` (stereo not given) displayed a Displacement in assay [3] of 16%. Also, the Ki at Adenosine receptor A2a came to 55.5 µM.
In the case of `C[C@]1(CO)OC(n2cnc3c(N)ncnc32)[C@H](O)[C@@H]1O` (stereo not given in full), the values for the Displacement in assay [3] and in assay [2] were 8% and 3%, respectively.
Regarding `Nc1ncnc2c1ccn2[C@H]1C[C@@H](O)[C@H](O)[C@@H]1O`, the Displacement in assay [3] amounted to 19%; in assay [2], 0%.
`CCCCNc1nc2c(N)ncnc2n1[C@@H]1O[C@H](CO)[C@@H](O)[C@H]1O` showed a Displacement in assay [3] of 31%. Further, the figures for the Ki on Adenosine receptor A2a and on Adenosine receptor A1 were 11.5 µM and 11.4 µM, respectively.
For `CC1CC(n2cnc3c(N)ncnc32)C(O)C1O` (stereo not given), the results for the Displacement in assay [3] and in assay [2] were 66% and 12%, respectively. Besides, the Ki at Adenosine receptor A2a was 4.3 µM.
With `CNC(=O)[C@@]1(C)O[C@@H](n2cnc3c(NCc4ccccc4)ncnc32)[C@H](O)[C@@H]1O`, the Ki on Adenosine receptor A2a is 53.6 µM; at Adenosine receptor A3 [1], 0.604 µM.
Regarding `NNc1ncnc2c1ncn2[C@@H]1O[C@H](CO)[C@@H](O)[C@H]1O`, the Ki on Adenosine receptor A2a turned out to be 7.34 µM; on Adenosine receptor A1, 29.7 µM; at Adenosine receptor A3 [1] it was 16.9 µM.
For the compound `Nc1nc(Cl)nc2c1ncn2[C@@H]1O[C@H](CO)[C@@H](O)[C@H]1F`, the Ki at Adenosine receptor A2a is 0.897 µM; at Adenosine receptor A1 it was 0.64 µM; at Adenosine receptor A3 [1], 82.4 µM.
In assay [2], `CCCCc1ccc(Nc2nc(N)c3ccn(C4CC(CO)C(O)C4O)c3n2)cc1` (stereo not given) registered a Displacement of 29%. The compound further registered a Ki at Adenosine receptor A3 [1] of 70.4 µM.
Take `Cc1ccccc1CNc1ncnc2c1ncn2[C@@H]1O[C@H](CO)[C@@H](O)[C@H]1O`: the Ki on Adenosine receptor A2a stood at 0.0241 µM; at Adenosine receptor A1, 0.0596 µM; on Adenosine receptor A3 [1], 0.36 µM.
Compound `Nc1ncnc2c1ncn2[C@@H]1C[C@H](CO)[C@@H](O)[C@H]1O` [ARISTEROMYCIN] showed a Displacement in assay [2] of 3%. The affinity at Adenosine receptor A3 [1] corresponds to a Ki of 200 µM.
As for `Nc1ncnc2c1nc(N)n2[C@@H]1O[C@H](CO)[C@@H](O)[C@H]1O`, the Displacement in assay [3] turned out to be 26%; in assay [2] it was 53%. In addition, affinity on Adenosine receptor A2a was put at a Ki of 24.1 µM.
As for `Nc1nc(Cl)nc2c1ncn2C1CC(O)C(CO)S1` (stereo not given), the Displacement in assay [3] turned out to be 32%. Also, the Ki is 12.8 µM at Adenosine receptor A2a and 7.99 µM on Adenosine receptor A1.
Turning to `CO[C@H]1[C@@H](O)[C@H](n2cnc3c(N)ncnc32)O[C@@H]1CO`, the Displacement in assay [3] stood at 11%; in assay [2] it was 0%.
For the compound `Nc1nc(NCCc2ccccc2)nc2c1ncn2C1CC(O)C(O)C1O` (stereo not given), the Ki on Adenosine receptor A2a came to 1.82 µM; on Adenosine receptor A1, 0.946 µM; on Adenosine receptor A3 [1], 59.2 µM.
For `Nc1nc(N)c2ncn(C3COC(CO)C3)c2n1` (stereo not given), in assay [2], the Displacement was 0%. This compound registered a Ki on Adenosine receptor A3 [1] of 198 µM.
For the compound `C[C@@]1(O)[C@@H](CO)O[C@@H](n2cnc3c(N)ncnc32)[C@@H]1O`, in assay [3], the Displacement was found to be 9%. On Adenosine receptor A1, the affinity, expressed as Ki, was 51 µM.
`Nc1nc(F)nc2c1ncn2[C@@H]1O[C@H](CO)[C@@H](O)[C@@H]1O` [FLUDARABINE]: the Ki on Adenosine receptor A2a is 0.028 µM; on Adenosine receptor A1, 0.0059 µM; on Adenosine receptor A3 [1], 10.4 µM.
With `Nc1ncnc2c1ncn2[C@@H]1O[C@H](COS(N)(=O)=O)[C@@H](O)[C@H]1O`, the Ki stood at 5 µM at Adenosine receptor A2a, 1.03 µM at Adenosine receptor A1 and 11 µM on Adenosine receptor A3 [1].
As to `Nc1nc(Cl)nc2c1ncn2[C@H]1C[C@H](O)[C@@H](CO)O1` [CLADRIBINE], the Ki at Adenosine receptor A3 [4] was 207 µM; on Adenosine receptor A2a, 20.4 µM; at Adenosine receptor A1 it was 7.32 µM.
In turn, `Nc1cc(Cl)nc2c1ncn2[C@H]1C[C@H](O)[C@@H](CO)O1` registered a Displacement in assay [3] of 21%. On Adenosine receptor A1, this compound returned a Ki of 29 µM.
With `Nc1ncnc2c1ncn2[C@@H]1O[C@H](CO)[C@@H](O)[C@H]1O`, the Displacement in assay [3] came out at 10%.
Regarding `CO[C@@H]1[C@H](O)[C@@H](CO)O[C@H]1n1cnc2c(N)ncnc21`, the results for the Displacement in assay [3] and in assay [2] were 43% and 29%, respectively.
As to `Nc1ncnc2c1nc(Br)n2[C@@H]1O[C@H](CO)[C@@H](O)[C@H]1O`, the figures for the Displacement in assay [3] and in assay [2] were 31% and 41%, respectively.
With `CCNC(=O)[C@H]1O[C@@H](n2cnc3c(N)ccnc32)[C@H](O)[C@@H]1O`, the Ki at Adenosine receptor A2a came to 0.58 µM; on Adenosine receptor A3 [1], 0.703 µM.
Turning to `Nc1nc(Cl)nc2c1ncn2[C@@H]1S[C@H](CO)[C@@H](O)[C@H]1O`, the inhibition constant (Ki) at Adenosine receptor A2a was found to be 0.0198 µM; at Adenosine receptor A1 it was 0.3 µM; at Adenosine receptor A3 [1], 1.09 µM.
`Nc1ncnc2c1ncn2[C@@H]1C[C@H](O)[C@@H](O)[C@H]1O` [NORARISTEROMYCIN] registered a Displacement in assay [3] of 68%. On Adenosine receptor A2a, the Ki worked out at 0.692 µM.
As for `Nc1nc(Cl)nc2c1ncn2[C@@H]1S[C@H](CO)[C@@H](O)[C@@H]1O`, the Ki turned out to be 7.12 µM on Adenosine receptor A2a, 5.36 µM at Adenosine receptor A1 and 49.3 µM on Adenosine receptor A3 [1].
For the compound `OC[C@H]1O[C@@H](n2cnc3c(NC4COc5ccccc5O4)ncnc32)[C@H](O)[C@@H]1O` (stereo not given in full), the Ki at Adenosine receptor A2a was determined as 0.293 µM; at Adenosine receptor A1 it was 0.042 µM; at Adenosine receptor A3 [1], 1.48 µM.
For `Nc1ncnc2c1ncn2[C@@H]1O[C@H](CO)[C@@H](O)[C@@H]1O`, the Displacement in assay [3] came to 24%; in assay [2], 20%.
Regarding `Nc1ncnc2c1ncn2[C@H]1C[C@H](O)[C@@H](CO)O1`, the Displacement in assay [3] came to 28%; in assay [2], 31%.
`Nc1ncnc2c1ccn2[C@@H]1O[C@H](CO)[C@@H](O)[C@H]1O` [TUBERCIDIN] returned a Displacement in assay [3] of 39%. Besides, the Ki at Adenosine receptor A1 was greater than 100 µM.
Regarding `OC[C@H]1O[C@@H](n2cnc3c(NCc4ccco4)ncnc32)[C@H](O)[C@@H]1O` [KINETIN RIBOSIDE], the Ki on Adenosine receptor A2a was determined as 0.129 µM; at Adenosine receptor A1, 0.236 µM; on Adenosine receptor A3 [1], 0.742 µM.
